Data as given in US20210236442A1, “METHODS FOR DELAYING OCCURRENCE OF NEW-ONSET TYPE 2 DIABETES AND FOR SLOWING PROGRESSION OF AND TREATING TYPE 2 DIABETES” (Dalcor Pharma UK Ltd., Leatherhead, Zug Branch, priority 2018, published 2021).

Tests used:
Type in all cases: in vivo, human
[1] = tested on: patients of the dal-OUTCOMES trial; experiment: GLM of dalcetrapib treatment arm for whole-blood HbA1c at 6, 12 and 24 months
Procedure: The effect of dalcetrapib on whole-blood HbA1c levels irrespective of genotype and the impact of dalcetrapib on risk of new onset diabetes were retrospectively assessed in patients of the dal-OUTCOMES trial. The descriptive statistics and analyses were performed using SAS 9.4 software. Diabetes at baseline was defined based on at least one of the following patient criteria: (1) diagnosis of diabetics at baseline in the dal-OUTCOMES trial; (2) whole-blood HbA1c level>=6.5% at baseline; (3) fasting glucose level>=7.0 mmol/L at baseline; and (4) use of diabetes medication at or before baseline. GLM results of the dalcetrapib treatment arm for whole-blood HbA1c at 6,12, and 24 months (“M06”, “M12” and “M24”, respectively) were obtained.

[2] = tested on: patients enrolled in the dal-OUTCOMES trial; experiment: Descriptive statistics of glucose and HbA1c, reported and change from baseline, by genotype and treatment arm; details: non-diabetic patients irrespective of rs1967309 genotype
Text: The effect of ADCY9 rs1967309 genotypes on patient HbA1C and glucose levels was retrospectively assessed in patients enrolled in the dal-OUTCOMES trial.
Inclusion Criteria: Patients 45 years of age or older who provided written informed consent were eligible to participate if they had been hospitalized for an acute coronary syndrome characterized by elevated cardiac biomarkers, with symptoms of acute myocardial ischemia, ischemic electrocardiographic abnormalities that were new or presumed to be new, or loss of viable myocardium on imaging. Patients without elevated cardiac biomarkers were eligible to participate if symptoms of acute myocardial ischemia were accompanied by electrocardiographic changes that were new or presumed to be new and by additional evidence of obstructive coronary disease. […] However, no specific statin agent or dose was specified, and patients were not excluded if their LDL cholesterol level remained above 100 mg per deciliter. There were no exclusions on the basis of patients' HDL cholesterol level. […]
Descriptive statistics of reported and change from baseline of glucose and HbA1C according to the genotype of the SNP rs1967309 were analyzed for each treatment arm and for diabetic and non-diabetic patients separately with non-parametric statistics.

[3] = tested on: patients enrolled in the dal-OUTCOMES trial; experiment: Cox proportional hazards regression of diabetes for association with cardiovascular events per rs1967309 genotype and treatment arm (dal-OUTCOMES); details: for Event (cardiovascular events) / HR (diabetes, cardiovascular events) / β diabetes (cardiovascular events): dalcetrapib arm
Text: Inclusion Criteria: Patients 45 years of age or older who provided written informed consent were eligible to participate if they had been hospitalized for an acute coronary syndrome characterized by elevated cardiac biomarkers, with symptoms of acute myocardial ischemia, ischemic electrocardiographic abnormalities that were new or presumed to be new, or loss of viable myocardium on imaging. Patients without elevated cardiac biomarkers were eligible to participate if symptoms of acute myocardial ischemia were accompanied by electrocardiographic changes that were new or presumed to be new and by additional evidence of obstructive coronary disease. […] However, no specific statin agent or dose was specified, and patients were not excluded if their LDL cholesterol level remained above 100 mg per deciliter. There were no exclusions on the basis of patients' HDL cholesterol level. […] The patients began a single-blind placebo-based run-in period of approximately 4 to 6 weeks to allow for patients to stabilize and for completion of any planned revascularization procedures. At the end of the run-in period, patients in stable condition were randomized in a 1:1 ratio to 600 mg of dalcetrapib or placebo on top of evidence-based medical care for acute cardiovascular syndrome (“ACS”). The descriptive statistics and analyses were performed using SAS 9.4 software. […]

[4] = tested on: patients enrolled in the dal-OUTCOMES trial; experiment: Cox proportional hazards regression of SNP rs1967309 for association with cardiovascular events per treatment arm (dal-OUTCOMES); details: for Event (cardiovascular events): 600 mg dalcetrapib arm; for HR (rs1967309, cardiovascular events) / β genetic (rs1967309, cardiovascular events): dalcetrapib arm
Text: Inclusion Criteria: Patients 45 years of age or older who provided written informed consent were eligible to participate if they had been hospitalized for an acute coronary syndrome characterized by elevated cardiac biomarkers, with symptoms of acute myocardial ischemia, ischemic electrocardiographic abnormalities that were new or presumed to be new, or loss of viable myocardium on imaging. Patients without elevated cardiac biomarkers were eligible to participate if symptoms of acute myocardial ischemia were accompanied by electrocardiographic changes that were new or presumed to be new and by additional evidence of obstructive coronary disease. […] However, no specific statin agent or dose was specified, and patients were not excluded if their LDL cholesterol level remained above 100 mg per deciliter. There were no exclusions on the basis of patients' HDL cholesterol level. […] The patients began a single-blind placebo-based run-in period of approximately 4 to 6 weeks to allow for patients to stabilize and for completion of any planned revascularization procedures. At the end of the run-in period, patients in stable condition were randomized in a 1:1 ratio to 600 mg of dalcetrapib or placebo on top of evidence-based medical care for acute cardiovascular syndrome (“ACS”). The descriptive statistics and analyses were performed using SAS 9.4 software.
Cox proportional hazards regression of single nucleotide polymorphism (“SNP”) rs1967309 was conducted for association with cardiovascular events in each treatment arm and in patients with a diagnosis of diabetic at baseline in the dal-OUTCOMES trial and in non-diabetic patients separately without controlling for any covariate, as shown in Table 4. Cox proportional hazards regression of SNP rs1967309 was conducted for association with cardiovascular events in each treatment arm and in diabetic and non-diabetic patients separately controlling for age and sex, as shown in Table 5.

[5] = rs1967309 AA, controlling for age and sex
[6] = rs1967309 AG, controlling for age and sex
[7] = rs1967309 GG, controlling for age and sex
[8] = diabetic patients, controlling for age and sex
[9] = diabetic patients, no covariate
[10] = non-diabetic patients, controlling for age and sex
[11] = non-diabetic patients, no covariate

SMILES: CCC(CC)CC1(C(=O)Nc2ccccc2SC(=O)C(C)C)CCCCC1 [dalcetrapib]
- β dalcetrapib, Ln(HbA1c) ([1]; All, HBA1C_M06, Table 12, adjustment not stated): −0.0137
- β dalcetrapib, Ln(HbA1c) ([1]; All, HBA1C_M06, first block, adjusted for baseline HbA1c): −0.0143
- β dalcetrapib, Ln(HbA1c) ([1]; All, HBA1C_M12, Table 12, adjustment not stated): −0.0152
- β dalcetrapib, Ln(HbA1c) ([1]; All, HBA1C_M12, first block, adjusted for baseline HbA1c): −0.0160
- β dalcetrapib, Ln(HbA1c) ([1]; All, HBA1C_M24, Table 12, adjustment not stated): −0.0170
- β dalcetrapib, Ln(HbA1c) ([1]; All, HBA1C_M24, first block, adjusted for baseline HbA1c): −0.0176
- association of dalcetrapib treatment arm with whole-blood HbA1c levels ([1]; M06, M12, M24, all patients combined and each rs1967309 genotype, with and without age and sex): associated with decrease in whole-blood HbA1c levels
- β dalcetrapib, Ln(HbA1c) ([1]; genotype = AA, HBA1C_M06, Table 12, adjustment not stated): −0.0192
- β dalcetrapib, Ln(HbA1c) ([1]; genotype = AA, HBA1C_M06, first block, adjusted for baseline HbA1c): −0.0196
- β dalcetrapib, Ln(HbA1c) ([1]; genotype = AA, HBA1C_M12, Table 12, adjustment not stated): −0.0112
- β dalcetrapib, Ln(HbA1c) ([1]; genotype = AA, HBA1C_M12, first block, adjusted for baseline HbA1c): −0.0116
- β dalcetrapib, Ln(HbA1c) ([1]; genotype = AA, HBA1C_M24, Table 12, adjustment not stated): −0.0172
- β dalcetrapib, Ln(HbA1c) ([1]; genotype = AA, HBA1C_M24, first block, adjusted for baseline HbA1c): −0.0171
- β dalcetrapib, Ln(HbA1c) ([1]; genotype = AG, HBA1C_M06, Table 12, adjustment not stated): −0.0113
- β dalcetrapib, Ln(HbA1c) ([1]; genotype = AG, HBA1C_M06, first block, adjusted for baseline HbA1c): −0.0123
- β dalcetrapib, Ln(HbA1c) ([1]; genotype = AG, HBA1C_M12, Table 12, adjustment not stated): −0.0143
- β dalcetrapib, Ln(HbA1c) ([1]; genotype = AG, HBA1C_M12, first block, adjusted for baseline HbA1c): −0.0156
- β dalcetrapib, Ln(HbA1c) ([1]; genotype = AG, HBA1C_M24, Table 12, adjustment not stated): −0.0139
- β dalcetrapib, Ln(HbA1c) ([1]; genotype = AG, HBA1C_M24, first block, adjusted for baseline HbA1c): −0.0153
- β dalcetrapib, Ln(HbA1c) ([1]; genotype = GG, HBA1C_M06, Table 12, adjustment not stated): −0.0145
- β dalcetrapib, Ln(HbA1c) ([1]; genotype = GG, HBA1C_M06, first block, adjusted for baseline HbA1c): −0.0145
- β dalcetrapib, Ln(HbA1c) ([1]; genotype = GG, HBA1C_M12, Table 12, adjustment not stated): −0.0185
- β dalcetrapib, Ln(HbA1c) ([1]; genotype = GG, HBA1C_M12, first block, adjusted for baseline HbA1c): −0.0186
- β dalcetrapib, Ln(HbA1c) ([1]; genotype = GG, HBA1C_M24, Table 12, adjustment not stated): −0.0214
- β dalcetrapib, Ln(HbA1c) ([1]; genotype = GG, HBA1C_M24, first block, adjusted for baseline HbA1c): −0.0210
- β dalcetrapib, Ln(HbA1c) ([1]; genotype_group = AA + AG, HBA1C_M06, Table 12, adjustment not stated): −0.0133
- β dalcetrapib, Ln(HbA1c) ([1]; genotype_group = AA + AG, HBA1C_M06, first block, adjusted for baseline HbA1c): −0.0141
- β dalcetrapib, Ln(HbA1c) ([1]; genotype_group = AA + AG, HBA1C_M12, Table 12, adjustment not stated): −0.0135
- β dalcetrapib, Ln(HbA1c) ([1]; genotype_group = AA + AG, HBA1C_M12, first block, adjusted for baseline HbA1c): −0.0146
- β dalcetrapib, Ln(HbA1c) ([1]; genotype_group = AA + AG, HBA1C_M24, Table 12, adjustment not stated): −0.0147
- β dalcetrapib, Ln(HbA1c) ([1]; genotype_group = AA + AG, HBA1C_M24, first block, adjusted for baseline HbA1c): −0.0157
- β dalcetrapib, Ln(HbA1c) ([1]; genotype_group = GG, HBA1C_M06, Table 12, adjustment not stated): −0.0145
- β dalcetrapib, Ln(HbA1c) ([1]; genotype_group = GG, HBA1C_M06, first block, adjusted for baseline HbA1c): −0.0145
- β dalcetrapib, Ln(HbA1c) ([1]; genotype_group = GG, HBA1C_M12, Table 12, adjustment not stated): −0.0185
- β dalcetrapib, Ln(HbA1c) ([1]; genotype_group = GG, HBA1C_M12, first block, adjusted for baseline HbA1c): −0.0186
- β dalcetrapib, Ln(HbA1c) ([1]; genotype_group = GG, HBA1C_M24, Table 12, adjustment not stated): −0.0214
- β dalcetrapib, Ln(HbA1c) ([1]; genotype_group = GG, HBA1C_M24, first block, adjusted for baseline HbA1c): −0.0210
- mean ln(HbA1c) in the dalcetrapib treatment arm ([1]; versus placebo arm, adjusting for baseline HbA1c): lower than in the placebo arm
- HbA1c change from baseline compared to placebo [2]: greater reductions in HbA1c
- whole-blood level of HbA1c with dalcetrapib treatment compared to placebo [2]: systematically lower
- effect of dalcetrapib on cardiovascular events ([3]; AA patients with diabetes): cardiovascular protective effect
- Event (cardiovascular events) ([3]; rs1967309 AA, Table 6): 37
- Event (cardiovascular events) ([3]; rs1967309 AA, Table 7): 37
- HR (diabetes, cardiovascular events) [3, 5]: 1.6850
- β diabetes (cardiovascular events) [3, 5]: 0.5218
- HR (diabetes, cardiovascular events) ([3]; rs1967309 AA, no covariate): 1.4330
- β diabetes (cardiovascular events) ([3]; rs1967309 AA, no covariate): 0.3597
- Event (cardiovascular events) ([3]; rs1967309 AG, Table 6): 176
- Event (cardiovascular events) ([3]; rs1967309 AG, Table 7): 176
- HR (diabetes, cardiovascular events) [3, 6]: 2.2217
- β diabetes (cardiovascular events) [3, 6]: 0.7983
- HR (diabetes, cardiovascular events) ([3]; rs1967309 AG, no covariate): 2.3398
- β diabetes (cardiovascular events) ([3]; rs1967309 AG, no covariate): 0.8501
- Event (cardiovascular events) ([3]; rs1967309 GG, Table 6): 176
- Event (cardiovascular events) ([3]; rs1967309 GG, Table 7): 176
- HR (diabetes, cardiovascular events) [3, 7]: 1.6913
- β diabetes (cardiovascular events) [3, 7]: 0.5255
- HR (diabetes, cardiovascular events) ([3]; rs1967309 GG, no covariate): 1.7772
- β diabetes (cardiovascular events) ([3]; rs1967309 GG, no covariate): 0.5750
- SNP rs1967309 as predictor of cardiovascular events in the dalcetrapib arm ([4]; diabetic and non-diabetic patients, with and without covariates, significance level of 5%): predictive of cardiovascular events
- Event (cardiovascular events) ([4]; diabetic patients, Table 4): 134
- Event (cardiovascular events) ([4]; diabetic patients, Table 5): 134
- HR (rs1967309, cardiovascular events) [4, 8]: 0.6631
- β genetic (rs1967309, cardiovascular events) [4, 8]: −0.4108
- HR (rs1967309, cardiovascular events) [4, 9]: 0.6597
- β genetic (rs1967309, cardiovascular events) [4, 9]: −0.4159
- Event (cardiovascular events) ([4]; non-diabetic patients, Table 4): 255
- Event (cardiovascular events) ([4]; non-diabetic patients, Table 5): 255
- HR (rs1967309, cardiovascular events) [4, 10]: 0.6366
- β genetic (rs1967309, cardiovascular events) [4, 10]: −0.4516
- HR (rs1967309, cardiovascular events) [4, 11]: 0.6400
- β genetic (rs1967309, cardiovascular events) [4, 11]: −0.4462
